Tests used:
P. capsici zoospores [1] = test: Encystment assay with phage-displayed peptides; assay type: cell-based, Phytophthora capsici; conditions: phage 2.5×10^9 virion; 20 minute incubation at room temperature
Description: Following binding, the pathogen is observed for alterations in its development or ability to infect a host. […] The range of phage concentrations can vary, but generally ranges between 1 to 10×10^9 virion/μl. A negative control containing no phage is included in each screening. After an incubation period of usually about 20 minutes at room temperature, the number of zoospores encysted at each phage concentration is determined. Using this method it is possible to rationally select peptides of defined character and evaluate them for species- and life stage-specific induction of receptor-mediated functional responses, such a zoospore encystment. Peptides found to interfere with the development of a pathogen can be used to prevent or limit infection of a host with the pathogen.
Selected phage clones were isolated according to Smith and Scott (Methods in Enzymology, 217:228-257, 1993), and twice purified using polyethylene glycol as described above with the exception that phage were resuspended in distilled water instead of TBS. The virion concentration was calculated by measuring the absorbance at A269 (Smith and Scott, Methods in Enzymology, 217:228-257, 1993). Water droplets of approximately 20 μl containing about 400 freshly released zoospores were incubated with phage at two-fold serial dilutions so that they contained phage-bearing peptides at concentrations of either 1×10^10, 5×10^9, 2.5×10^9 or 1.25×10^9 virion/μl of droplet. A negative control received no phage and was used to monitor the amount of spontaneous encystment in the zoospore population. After a 20 minute incubation at room temperature, the number of encysted zoospores was counted using a microscope at 100× magnification. The virion concentration of phage was calculated according to Smith and Scott (Methods in Enzymology, 217:228-257, 1993).

P. capsici zoospores [2] = test: Binding of phage-displayed peptides to zoospores (eluted phage titered as TU); set-up: species or system Phytophthora capsici; conditions: 5×10^10 TU phage with 200,000 zoospores, 30 minutes incubation
Description: An aliquot of 10^11 transducing units (TU) from the f8-1 library (Petrinko et al., Protein Engineering, 9:797-801, 1996) was added to 10^6 freshly released P. capsici zoospores at room temperature in 4 ml of 50 mM LiCl and incubated for 30 minutes at room temperature with gentle agitation. The same procedure was used for the 188-4 library except in some cases P. sojae zoospores were used (Soj clones). The zoospores containing the bound phage were washed 10 times in 150 μl of 50 mM LiCl and centrifuged at 1000×g for 45 seconds to remove unbound phage. After the tenth wash, the bound phage were eluted with 200 μl of elution buffer (0.1 N HCl, glycine sufficient to bring pH to 2.2, 1 mg/ml bovine serum albumin). […] Selective enrichment of the zoospore-binding phage was monitored by calculating the percent yield after each round of selection as described in Smith and Scott (Methods in Enzymology, 217:228-257, 1993). This was done by calculating the total phage (expressed as transducing units) that was applied to the zoospores and measuring the total output of phage (as transducing units) that was recovered from the zoospores and expressing the result as a percentage. […]
Phage vector was included as a control treatment. […] Phage eluted from the zoospore population were titered in E. coli K91BluKan cells and expressed as total transducing units. […]

P. capsici cysts = test: Binding of phage-displayed peptides to cysts (eluted phage titered as TU); set-up: species or system Phytophthora capsici; conditions: 5×10^10 TU phage
U. appendiculatus = test: Inhibition of germling (germinated uredospore) growth; assay type: cell-based, Uromyces appendiculatus; conditions: phage-peptide clones, ~250 germinated spores with 3×10^12 at 20 C overnight; listed as clone 19
Excerpt: Part D entails the generation of additional Sub-libraries by use of further rounds of biopanning including rounds 2, 3 and 4. Part B is repeated three times: • 1. For biopanning round 2, 4.2×10^11 TU phages from the 2nd Sub-library are used to produce Sub-library 3; • 2. For biopanning round 3, 5.6×10^11 TU phages amplified from the 2nd biopanning are used to produce Sub-library 4; and • 3. For biopanning round 4, 5.1×10^11 TU phages amplified from the 3rd biopanning are used to produce Sub-library 5. Colonies from biopanning-round 4 are picked, sequenced, and tested for inhibition of germling growth.
Part E entails testing for inhibition of uredospore growth. Incubate 30 ul of germinated spores (˜250) with 3×10^12 at 20 C overnight. Assess fungal germ tube growth (i.e. germling growth) and compare with water and f88, i.e. phage only without any display peptide, as controls.

Sequence	level of encystment of P. capsici zoospores (P. capsici zoospores [1])	also measured
AEHQNSAGP (Random peptide insert) [Pc45]	low levels of encystment	phage eluted from zoospores (P. capsici zoospores [2]): about 50,000 TU
AVSPNVHDG (Random peptide insert) [Pc42]	high levels of encystment	
AGLTSPNDM (Random peptide insert) [Pc15B]	low levels of encystment	
ADPPRTVST (Random peptide insert) [Pc78]	high levels of encystment	
ADRPSMSPT (Random peptide insert) [Pc87]	high levels of encystment	phage eluted from cysts (P. capsici cysts): less than 10^4 TU; phage eluted from zoospores (P. capsici zoospores [2]): More than 10^7 TU
AAPDLQDAM (Random peptide insert) [Pc56]	low levels of encystment	
NHVSTLKTRHRLIPF (Random peptide insert) [Pp 19]		growth inhibition of U. appendiculatus (germlings) (U. appendiculatus): inhibition
ADITDPMGA (Random peptide insert) [Pc64]	high levels of encystment	

Source: patent US8067669B2, “Method for inducing resistance to fungal infection in transgenic plants using plant defense peptides” (The Curators Of The University Of Missouri, priority 2000, dated 2011)
